Experimental data: US20240150277A1, “Covalent PPARG inverse-agonists” (Bayer Aktiengesellschaft, priority 2022, published 2024)
Where two headings read alike, the source gives them in different places.

How the values were obtained:
[1] = system: UMUC9 cells; assay: Proliferation UMUC9 H2B-GFP assay (Incucyte); type: cell-based; details: 7 days of treatment; for IC50: UM-UC-9, relative IC50, Day 1 subtracted, percentage of DMSO control; for Emax: UM-UC-9, 168 h, % efficacy (span)
Protocol: Proliferation UMUC9 H2B-GFP assay
Instrument: Incucyte® (Sartorius).
Description: Incucyte® Proliferation Assay measures cell proliferation based on nuclei count using live-cell time-lapse imaging. […] Measurements were performed on the day of treatment (Day 1 reading) and after 7 days of treatment (Day 8 reading). Green fluorescence in cell nuclei is measured using the instrument (Image Channels: Phase, Green; Acquisition time: 300 ms; Magnification: 4×).
Analysis: Selected metrics for analysis: Phase Object Confluence (Percent), Nuclei Count (1/Well) and Total Nuclei Area (μm^2/Well). Day 1 measurements were subtracted from each Day 8 measurement and expressed as percentage of the vehicle (DMSO) control. Percentage proliferation values were then plotted against compound concentration using GraphPad PRISM software. The Sigmoidal 4PL X is log (concentration) model of […] was used. Relative IC50 values and % efficacy (span) is reported below.

[2] = target: T1, PPARG receptors (Homo sapiens, UniProt P37231); assay: RT-112-FABP4-NLuc Reporter Gene Assay (inverse agonism); type: cell-based; details: incubated over night; for IC50: bladder cancer cell line RT-112/84, NanoLuc in FABP4 3′ UTR, 50 μM to 0.03 nM; for Emax: RT112/84, read-out: PPARG_RT-112_FABP4_NLuc_inverse agonist Efficacy - [%], bladder cancer cell line RT-112/84, NanoLuc in FABP4 3′ UTR
T1 construct: leading to PPARG dependent expression of the NanoLuc@ Luciferase; endogenous in cells
T1 sequence (P37231 1-505): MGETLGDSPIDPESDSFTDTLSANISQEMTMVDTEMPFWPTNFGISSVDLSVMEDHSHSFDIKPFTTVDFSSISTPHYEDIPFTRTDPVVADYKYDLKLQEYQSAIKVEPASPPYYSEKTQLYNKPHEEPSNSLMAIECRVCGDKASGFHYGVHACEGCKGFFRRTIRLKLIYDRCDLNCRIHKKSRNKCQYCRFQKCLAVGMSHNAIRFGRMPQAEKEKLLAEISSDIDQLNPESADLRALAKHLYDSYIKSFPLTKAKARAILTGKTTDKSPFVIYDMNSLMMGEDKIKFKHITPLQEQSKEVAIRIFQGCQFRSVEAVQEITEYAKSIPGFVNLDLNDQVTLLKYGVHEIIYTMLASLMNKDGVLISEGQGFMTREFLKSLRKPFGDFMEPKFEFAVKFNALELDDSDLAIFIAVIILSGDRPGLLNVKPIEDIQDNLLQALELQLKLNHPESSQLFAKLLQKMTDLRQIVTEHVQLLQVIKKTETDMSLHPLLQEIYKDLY
Protocol: Inverse agonists reduce the basal expression of the Luciferase resulting in a decrease of the Luciferase signal after addition of substrate and cell lysis. To exclude toxic effects of the compounds a parallel measurement of cell viability was performed based on the CellTiter Glo Assay (Promega).
On the next day 10 μl of test compounds dissolved in DMEM/F12 2% FBS and 0,01% BSA are placed in the wells of the microtiter plates. Final concentrations ranged from 50 μM to 0.03 nM. […] On the next day the NanoLuc Luciferase activity was measured by addition of 40 μl of NanoLuc substrate and lysis buffer (Promega, Madison, Wisconsin) diluted in 2 mM Ca-tyrode buffer (20 mM HEPES, 130 mM NaCl, 5 mM KCl, 5 mM NaHCO3, 2 mM MgCl2, pH 7,4). The resulting light signal was measured for 60 seconds in a luminometer. Every sample was tested in quadruples and mean values were used to calculate the IC50 values and efficacies of the compounds.

[3] = PPARG_RT-112_FABP4_NLuc_inverse agonist IC50 - [mol/l]
[4] = read-out: PPARG_RT-112_FABP4_NLuc_inverse agonist IC50 - [mol/l]

| Structure (SMILES) | IC50 [2, 3] [nM] | Emax [2] [%] | IC50 [2, 4] [nM] | IC50 [1] [nM] | Emax [1] [%] |
| --- | --- | --- | --- | --- | --- |
| Cc1cc(-c2nnco2)ccc1NC(=O)c1cc(C(=O)NCc2ccc(F)c(F)c2)c(F)cc1Cl [Example 10, 4-chloro-N^1-[(3,4-difluorophenyl)methyl]-6-fluoro-N^3-[2-methyl-4-(1,3,4-oxadiazol-2-yl)phenyl]benzene-1,3-dicarboxamide] | – | 108 | 4.8 | – | 86.7 |
| Cc1cccc(-c2nc3cc(NC(=O)c4cc(C(=O)NCc5ccc(F)c(F)c5)c(F)cc4Cl)ccc3o2)c1 [Example 39, 4-chloro-N^1-(3,4-difluorobenzyl)-6-fluoro-N^3-(2-(m-tolyl)benzo[d]oxazol-5-yl)isophthalamide] | – | 95.5 | 6.55 | 34.2 | 88.7 |
| Cc1cc(N2CCOCC2)cnc1NC(=O)c1cc(C(=O)NCc2ccc(F)c(F)c2)c(F)c(C)c1Cl [Example 18, 4-chloro-N^1-[(3,4-difluorophenyl)methyl]-6-fluoro-5-methyl-N^3-[3-methyl-5-(morpholin-4-yl)pyridin-2-yl]benzene-1,3-dicarboxamide] | 1.35 | 95 | – | 31 | 59.5 |

Second part, led by results:

| IC50 [2, 3] [nM] | Emax [2] [%] | IC50 [2, 4] [nM] | Structure (SMILES) | IC50 [1] [nM] | Emax [1] [%] |
| --- | --- | --- | --- | --- | --- |
| 0.3 | 86.8 | – | O=C(NCc1ccccc1)c1cc(Cl)c(Cl)c(C(=O)Nc2ccc(OC(F)F)cc2)c1F [Example 31, N^1-benzyl-4,5-dichloro-N^3-[4-(difluoromethoxy)phenyl]-2-fluorobenzene-1,3-dicarboxamide] | > 6000 | – |
| 4.7 | 102 | – | O=C(NCc1ccc(F)c(F)c1)c1cc(Cl)c(Cl)c(C(=O)Nc2cnccn2)c1 [Example 42, 4,5-dichloro-N^1-(3,4-difluorobenzyl)-N^3-(pyrazin-2-yl)isophthalamide] | 1.94 | 68.6 |
| 0.815 | 148 | – | Cc1noc(-c2ccc(NC(=O)c3cc(C(=O)NCc4ccc(F)cc4)c(F)cc3Cl)cc2)n1 [Example 23, 4-chloro-6-fluoro-N^1-[(4-fluorophenyl)methyl]-N^3-[4-(3-methyl-1,2,4-oxadiazol-5-yl)phenyl]benzene-1,3-dicarboxamide] | 3.77 | 54 |
